Where “and” joins values, the source holds several entries; their conditions need not be identical. Identical values can stand only once. Residues, ends and D or L forms follow the SMILES beside them. *: point of attachment. Cbz = O=C(OCc1ccccc1)*; NHPh = c1ccc(N*)cc1; OtBu = CC(C)(C)O*
System: donor-derived DRG neurons
Assay: Whole-cell current-clamp, human donor-derived DRG neurons
Type: cell-based
Source text: Human donor (hDRG) neurons. Dorsal root ganglia were recovered from consented, de-identified organ and tissue donors at the University of Cincinnati Medical Center following previously described protocols (57, 58). Recovered tissues were transported in oxygenated, ice-cold N-methyl-D-glucamine (NMDG) artificial […] (aCSF, mM): 93 NMDG, 2.5 KCl, 1.25 NaH2PO4, 30 NaHCO3, 20 HEPES, 25 Glucose, 5 Ascorbic acid, 2 Thiourea, 3 Na+ pyruvate, 10 MgSO4, 0.5 CaCl2, 12 N-acetylcysteine, adjusted to pH 7.4 with HCl). hDRGs were isolated from connective tissue, fat, roots, and nerves and then minced into small 1-3 mm pieces which were enzymatically treated with warmed papain (45U) followed by collagenase (4.5 mg/200µl) each for 40 minutes at 37 °C, 5% CO2 in HBSS with 5 mM HEPES (Hanks’ Balanced Salt Solution with 4-2 (2-hydrozyethyl)-1-piperazineethananessulfonic acid; Gibco). Neurons were dissociated by trituration and incubated in warmed Neurobasal A-based DRG media (with penicillin/streptomycin, B27 supplement (Gibco), fetal bovine serum (FBS), and GlutaMAX (Gibco, cat # 35050061), as previously described. Dissociated DRG suspension was plated onto poly-d-lysine (0.01 mg/ml, Sigma) and collagen (1 mg/ml, Sigma) coated coverslips and incubated 2 days. […]
following salts: extracellular (mM): 140 NaCl, 3 KCl, 1 MgCl2, 1 CaCl2, 10 HEPES, 10 glucose, pH 7.3; intracellular (mM): 130 CH3O3 SCs, 1 EGTA, 10 NaCl, 10 HEPES, pH 7.3. Membrane capacitance and series resistance were estimated by the dial settings on the amplifier and compensated for electronically by 70–80%.
Data was acquired at 20 kHz and filtered at 5 kHz before digitization and storage. All experimental parameters were controlled by Clampex 9.2 software (Molecular Devices) and interfaced to the electrophysiological equipment using a Digidata 1300 analog–digital interface (Molecular Devices). […]
μM PW164 or ZL192 in the extracellular solution. The recording solution consisted of the following salts: extracellular (mM): 130 NaCl, 3 KCl, 30 TEA, 0.1 CdCl2 1 MgCl2, 1 CaCl2, 10 HEPES, 10 glucose, pH 7.3; intracellular (mM): 140 CsF, 1.1 EGTA, 10 NaCl, 10 HEPES, pH 7.3.
Human donor DRG neurons: Coverslips were transferred to a recording chamber and bathed in extracellular solution (mM): 145 NaCl, 3 KCl, 2.5 CaCl2, 1.2 MgCl2, 10 HEPES, 7 glucose, 0.05 CdCl2 adjusted to pH 7.4 with NaOH, with a flow rate of 1-2 ml/min. Borosilicate glass pipettes with the resistance of 1.5 to 2.5 MΩ were made using a P-1000 micropipette puller (Sutter Instrument, Novato, CA, USA). The intracellular solution contained (mM): 130 K-gluconate, 5 KCl, 5 NaCl, 2 MgCl2, 0.3 Ethylene glycol-bis(2-aminoethylether)- NNN’N’-tetraacetic acid (EGTA), 10 HEPES, 2 Na ATP, adjusted to pH 7.3 with KOH and 294 mOsm with sucrose. Coverslips were pre-incubated in 50 µM PW164 or ZL192 or 0.1% DMSO vehicle for 1 hour before recording. Recordings were obtained on MultiClamp 700B and Digidata 1550A (Molecular Devices) and sampled […]
at 20 kHz. Neurons were investigated if resting membrane potential was below -45 mV. Neurons were held under current clamp, and membrane properties and action potential discharge were assessed as previously described […]
Human Dorsal Root Ganglia Procurement
Human dorsal root ganglia (DRGs) procurement procedures were performed in accordance with the Institutional Review Boards at the University of Texas at Dallas. DRGs were procured from organ donors through a collaboration with the Southwest Transplant Alliance (STA). DRGs were frozen in powdered dry ice at the time of extraction and then stored in a -80°C freezer until use. Details on tissue procurement procedures, quality metrics, and tissue preparation can be found on protocols.io doi:10.17504/protocols.io.kqdg32qr1v25/v1 (2024).
The medical history of each donor was provided by the STA and is a summary of information from hospital records and family members. Donor demographics, condition (non-diabetic vs diabetic painful neuropathy […]

[1] = 50 µM, 1 hour preincubation, relative to control

SMILES	action potential firing [1]	rheobase to fire an action potential [1]	Suppl Fig. S16A, 1x (single cells)	Suppl Fig. S16A, 3x (3x, single cells)
COC(=O)[C@@H](NC(=O)[C@H](CCC(=O)OC(C)(C)C)NC(=O)[C@H](CC(C)C)NC(=O)[C@@H]1CCCN1C(=O)OCc1ccccc1)C(C)C [PW164] (Cbz-PLE(OtBu)V-OMe)	reduced action potential firing	increased rheobase	1	–
CC(=O)N[C@@H](Cc1ccccc1)C(=O)N[C@@H](CC(C)C)C(=O)N1CCC[C@H]1C(=O)N[C@@H](CCCCN)C(=O)Nc1ccccc1 [ZL192] (Ac-FLPK-NHPh)	–	decreased rheobase	1	2 and 1

— publication PMC12259270, “Sensory neuron–expressed FGF13 controls nociceptive signaling in diabetic neuropathy models” (The Journal of Clinical Investigation, 2025)
